For assay [1], the system named is Monkey. Nature of the assay: Tested for ability to maintain self-administration after administration of 0.1 mg/kg in monkey 3017 Range ([…]). It counts as functional, Cercopithecidae.
For assay [2], the system named is Monkey. Nature of the assay: Tested for ability to maintain self-administration after administration of 0.1 mg/kg in monkey 2037. It counts as functional, Cercopithecidae.
Assay [3] deals with Monkey. Nature of the assay: Tested for ability to maintain self-administration after administration of 0.3 mg/kg in monkey 3017 Range (28-50). It counts as functional, Cercopithecidae.
Assay [4] has as its system Monkey. Nature of the assay: Tested for ability to maintain self-administration after administration of 0.03 mg/kg in monkey 3017 Range (26-29). It counts as functional, Cercopithecidae.
The subject of assay [5] is Monkey. Kind of assay: Tested for ability to maintain self-administration after administration of 0.03 mg/kg in monkey 3038 Range (0-14). It counts as functional, Cercopithecidae.
For assay [6], the system named is Monkey. Kind of assay: Tested for ability to maintain self-administration after administration of 0.01 mg/kg in monkey 3017 Range (14-22). It counts as functional, Cercopithecidae.
In assay [7] the test system is Monkey. Kind of assay: Tested for ability to maintain self-administration after administration of 0.01 mg/kg in monkey 2036 Range (25-28). It counts as functional, Cercopithecidae.
The test system of assay [8] is Monkey. Kind of assay: Tested for ability to maintain self-administration after administration of 0.01 mg/kg in monkey 2037 Range (33-51). It counts as functional, Cercopithecidae.
Assay [9] relates to Monkey. Nature of the assay: Tested for ability to maintain self-administration after administration of 0.56 mg/kg in monkey 9079 Range (15-18). It counts as functional, Cercopithecidae.
Assay [10] has as its system Monkey. Nature of the assay: Tested for ability to maintain self-administration after administration of 0.1 mg/kg in monkey 3038 Range (42-58). It counts as functional, Cercopithecidae.
Assay [11] has as its system Monkey. Nature of the assay: Tested for ability to maintain self-administration after administration of 0.1 mg/kg in monkey 2036 Range (37-43). It counts as functional, Cercopithecidae.
In assay [12] the test system is Monkey. Nature of the assay: Tested for ability to maintain self-administration after administration of 0.03 mg/kg in monkey 9083 Range (19-47). It counts as functional, Cercopithecidae.
Assay [13] deals with Monkey. Kind of assay: Tested for ability to maintain self-administration after administration of 0.3 mg/kg in monkey 9083 Range (14-23). It counts as functional, Cercopithecidae.
For assay [14], the system named is Monkey. Nature of the assay: Tested for ability to maintain self-administration after administration of 0.3 mg/kg in monkey 3038 Range (12-32). It counts as functional, Cercopithecidae.
For assay [15], the system named is Monkey. Kind of assay: Tested for ability to maintain self-administration after administration of 0.1 mg/kg in monkey 9079 Range (5-20). It counts as functional, Cercopithecidae.
Assay [16] concerns Monkey. Nature of the assay: Tested for ability to maintain self-administration after administration of 0.3 mg/kg in monkey 9079 Range (32-53). It counts as functional, Cercopithecidae.
Assay [17] deals with Monkey. Nature of the assay: Tested for ability to maintain self-administration after administration of 0.1 mg/kg in monkey 9083 Range (20-32). It counts as functional, Cercopithecidae.
The test system of assay [18] is Monkey. Nature of the assay: Tested for ability to maintain self-administration after administration of 0.3 mg/kg in monkey 2036 Range (10-12). It counts as functional, Cercopithecidae.
Assay [19] deals with Monkey. Kind of assay: Tested for ability to maintain self-administration after administration of 0.03 mg/kg in monkey 2037 Range (63-73). It counts as functional, Cercopithecidae.
Assay [20] relates to Monkey. Kind of assay: Tested for ability to maintain self-administration after administration of 0.03 mg/kg in monkey 2036 Range (30-36). It counts as functional, Cercopithecidae.
The test system of assay [21] is Mus musculus. Nature of the assay: Antiaggressive anxiolytic activity in the electroshock-induced fighting test in mice (po); Range (9.7-19.3). It counts as functional.
For assay [22], the system named is Mus musculus. Kind of assay: Antiaggressive anxiolytic activity in the electroshock-induced fighting test in mice (po); Range (0.58-2.63). It counts as functional.
For assay [23], the species on record is Mus musculus. Kind of assay: Ataxic activity in mice by rotarod test; Range (86.2-116.6). It counts as functional. Background: The rotarod test checks motor coordination on a turning rod.
Assay [24] in a line: Ratio of ED50 (hexobarbital) to that of ED50 (fighting). It counts as functional.
Assay [25] in a line: Ratio of ED50 (rotarod) to that of ED50 (fighting). It counts as functional.
The species entered for assay [26] is Mus musculus. Kind of assay: Effect on hexobarbital induced sleep was determined in hexobarbital potentiation test; Range (172.3-227.4). It counts as functional.
The species entered for assay [27] is Mus musculus. Kind of assay: Effect on hexobarbital induced sleep was determined in hexobarbital potentiation test; Range (9.6-17.1). It counts as functional.
For assay [28], the species on record is Mus musculus. Nature of the assay: Ataxic activity in mice by rotarod test; Range (2.2-6.4). It counts as functional.
Assay [29] relates to Mus musculus. Nature of the assay: Antiaggressive anxiolytic activity in the electroshock-induced fighting test in mice (po); Range (1.03-4.7;). It counts as functional.
For assay [30], the system named is Mus musculus. Nature of the assay: Antiaggressive anxiolytic activity in the electroshock-induced fighting test in mice (po); Range (14.7-24.8). It counts as functional.

On to `CCN(CC)CCN1C(=O)CN=C(c2ccccc2F)c2cc(Cl)ccc21` [FLURAZEPAM], for which the Effect came to 54.7 in assay [1]; 33 in assay [2]; 40.3 in [3]; 27.5 in [4]; 8 in assay [5]; 17.7 in assay [6]. The Effect in assay [7] is 26; in [8], 40.7; in assay [9] it was 16.7; in assay [10], 50; in assay [11] it was 40; in [12], 29. Further, the Effect in assay [13] is 18.3; in [14], 22; in assay [15], 12.5; in [16], 44.7; in [17], 26.3; in [18], 11. Further, the values for the Effect in assay [19] and in assay [20] were 68 and 33, respectively.
As a reminder, the ED50 is the dose at which the effect has come halfway, by size or by number of responders. Take `COc1cc(OCC(O)CN2CCN(c3ccccc3SC)CC2)cc(OC)c1OC.Cl` (configuration not stated): in [21], the 50% effect level (ED50) was put at a dose of 14 mg/kg.
Regarding `COc1cc(OCC(O)CN2CCN(c3ccccc3O)CC2)cc(OC)c1OC` (configuration not stated), the values for the median effective dose (ED50) in assay [22], in assay [23] and in [26] were 1.3 mg/kg, 100 mg/kg and 200 mg/kg, respectively. Besides, the Therapeutic index worked out at 154 in assay [24] and 77 in assay [25].
For the compound `CN1C(=O)CC(=O)N(c2ccccc2)c2cc(Cl)ccc21` [CLOBAZAM], the 50% effective dose (ED50) stood at 13.2 mg/kg in assay [27], 4.1 mg/kg in assay [28] and 2.35 mg/kg in [29]. Further, the values for the Therapeutic index in [24] and in assay [25] were 5.6 and 1.8, respectively.
In the case of `CCOc1ccccc1N1CCN(CC(O)COc2cc(OC)c(OC)c(OC)c2)CC1.Cl` (configuration not stated), the 50% effective dose (ED50) in [30] stood at 19 mg/kg.
